What was measured:
[1] = system: velvetleaf; test: Test B pre/postemergence velvetleaf; assay type: in vivo, Abutilon theophrasti
In short: (§1)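 Response is a visual 0-to-10 score relative to untreated plants, where 0 means no effect and 10 means complete control, taken twelve to sixteen days after application. Treatments went onto soil at planting and onto foliage of 1- to 4-leaf plants, using a surfactant-containing non-phytotoxic solvent.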

[2] = system: giant foxtail; test: Test B pre/postemergence giant foxtail; assay type: in vivo, Setaria faberii
In short: as §1

[3] = system: blackgrass; test: Test B pre/postemergence blackgrass; assay type: in vivo, Alopecurus myosuroides
In short: as §1

[4] = system: purple nutsedge; test: Test B pre/postemergence purple nutsedge; assay type: in vivo, Cyperus rotundus
In short: as §1

[5] = system: crabgrass; test: Test B pre/postemergence crabgrass; assay type: in vivo, Digitaria sanguinalis
In short: as §1

[6] = system: cocklebur; test: Test B pre/postemergence cocklebur; assay type: in vivo, Xanthium strumarium
In short: as §1

[7] = system: wheat; test: Test B pre/postemergence wheat; assay type: in vivo, Triticum aestivum
In short: as §1

[8] = system: corn; test: Test B pre/postemergence corn; assay type: in vivo, Zea mays
In short: as §1

[9] = system: soybean; test: Test B pre/postemergence soybean; assay type: in vivo, Glycine max
In short: as §1

[10] = system: morningglory; test: Test B pre/postemergence morningglory; assay type: in vivo, Ipomoea hederacea
In short: as §1

[11] = system: bedstraw; test: Test B pre/postemergence bedstraw; assay type: in vivo, Galium aparine
In short: as §1

[12] = system: pigweed; test: Test B pre/postemergence pigweed; assay type: in vivo, Amaranthus retroflexus
In short: as §1

[13] = system: surinam grass; test: Test B pre/postemergence surinam grass; assay type: in vivo, Brachiaria decumbens
In short: as §1

[14] = system: sugar beet; test: Test B pre/postemergence sugar beet; assay type: in vivo, Beta vulgaris
In short: as §1

[15] = system: wild oat; test: Test B pre/postemergence wild oat; assay type: in vivo, Avena fatua
In short: as §1

[16] = system: rape; test: Test B pre/postemergence rape; assay type: in vivo, Brassica napus
In short: as §1

[17] = Preemergence, Rate 62 g/ha, scale of 0 to 10 where 0 is no effect and 10 is complete control
[18] = Preemergence, Rate 250 g/ha, scale of 0 to 10 where 0 is no effect and 10 is complete control
[19] = Preemergence, Rate 500 g/ha, scale of 0 to 10 where 0 is no effect and 10 is complete control
[20] = Rate 125 g/ha, Preemergence, scale of 0 to 10 where 0 is no effect and 10 is complete control
[21] = Rate 500 g/ha, Postemergence, scale 0 to 10, 0 no effect, 10 complete control
[22] = Rate 62 g/ha, Postemergence, scale of 0 to 10 where 0 is no effect and 10 is complete control
[23] = Rate 125 g/ha, Postemergence, scale 0 to 10

CC(C)=CCCC(C)=CCn1c(=O)on(C(=O)N(c2ccc(F)cc2)C(C)C)c1=O [Compound 262]
2: Velvetleaf plant response rating [1, 21] | Blackgrass plant response rating [3, 18] | Crabgrass plant response rating [5, 18] | Crabgrass plant response rating [5, 20]
7: Plant response rating, Giant foxtail [2, 19] | Morningglory plant response rating [10, 21]
5: Plant response rating (0 to 10; 0 is no effect, 10 is complete control), Morningglory ([10]; Rate 250 g/ha, Postemergence)
4: Plant response rating, Blackgrass [3, 19] | Soybean plant response rating [9, 21] | Redroot pigweed plant response rating [12, 21]
0: Velvetleaf plant response rating [1, 17] | Velvetleaf plant response rating [1, 18] | Plant response rating, Velvetleaf [1, 19] | Velvetleaf plant response rating [1, 20] | Giant foxtail plant response rating [2, 17] | Plant response rating (0 to 10; 0 is no effect, 10 is complete control), Giant foxtail ([2]; Rate 250 g/ha, Postemergence) | Giant foxtail plant response rating [2, 21] | Blackgrass plant response rating [3, 17] | Blackgrass plant response rating [3, 22] | Blackgrass plant response rating [3, 23] | Blackgrass plant response rating [3, 20] | Plant response rating (0 to 10; 0 is no effect, 10 is complete control), Blackgrass ([3]; Rate 250 g/ha, Postemergence) | Blackgrass plant response rating [3, 21] | Nutsedge plant response rating [4, 17] | Nutsedge plant response rating [4, 18] | Plant response rating, Nutsedge [4, 19] | Nutsedge plant response rating [4, 20] | Plant response rating (0 to 10; 0 is no effect, 10 is complete control), Nutsedge ([4]; Rate 250 g/ha, Postemergence) | Nutsedge plant response rating [4, 21] | Crabgrass plant response rating [5, 17] | Plant response rating (0 to 10; 0 is no effect, 10 is complete control), Crabgrass ([5]; Rate 250 g/ha, Postemergence) | Crabgrass plant response rating [5, 21] | Cocklebur plant response rating [6, 17] | Cocklebur plant response rating [6, 18] | Plant response rating, Cocklebur [6, 19] | Cocklebur plant response rating [6, 22] | Cocklebur plant response rating [6, 23] | Cocklebur plant response rating [6, 20] | Plant response rating (0 to 10; 0 is no effect, 10 is complete control), Cocklebur ([6]; Rate 250 g/ha, Postemergence) | Cocklebur plant response rating [6, 21] | Wheat plant response rating [7, 17] | Wheat plant response rating [7, 18] | Plant response rating, Wheat [7, 19] | Wheat plant response rating [7, 20] | Wheat plant response rating [7, 21] | Corn plant response rating [8, 17] | Corn plant response rating [8, 18] | Plant response rating, Corn [8, 19] | Corn plant response rating [8, 22] | Corn plant response rating [8, 23] | Corn plant response rating [8, 20] | Plant response rating (0 to 10; 0 is no effect, 10 is complete control), Corn ([8]; Rate 250 g/ha, Postemergence) | Corn plant response rating [8, 21] | Soybean plant response rating [9, 17] | Soybean plant response rating [9, 18] | Plant response rating, Soybean [9, 19] | Soybean plant response rating [9, 20] | Morningglory plant response rating [10, 17] | Morningglory plant response rating [10, 18] | Plant response rating, Morningglory [10, 19] | Morningglory plant response rating [10, 20] | Bedstraw plant response rating [11, 17] | Bedstraw plant response rating [11, 18] | Plant response rating, Bedstraw [11, 19] | Bedstraw plant response rating [11, 22] | Bedstraw plant response rating [11, 23] | Bedstraw plant response rating [11, 20] | Redroot pigweed plant response rating [12, 17] | Redroot pigweed plant response rating [12, 18] | Plant response rating, Redroot pigweed [12, 19] | Redroot pigweed plant response rating [12, 20] | B. signalgrass plant response rating [13, 17] | B. signalgrass plant response rating [13, 18] | Plant response rating, B. signalgrass [13, 19] | B. signalgrass plant response rating [13, 22] | B. signalgrass plant response rating ([13]; Rate 125 g/ha, Postemergence, scale 0 (no effect) to 10 (complete control)) | B. signalgrass plant response rating [13, 20] | Plant response rating (0 to 10; 0 is no effect, 10 is complete control), B. signalgrass ([13]; Rate 250 g/ha, Postemergence) | B. signalgrass plant response rating [13, 21] | Sugarbeets plant response rating [14, 17] | Sugarbeets plant response rating [14, 18] | Plant response rating, Sugarbeets [14, 19] | Sugarbeets plant response rating [14, 20] | Sugarbeets plant response rating [14, 21] | Wild oats plant response rating [15, 17] | Wild oats plant response rating [15, 18] | Plant response rating, Wild oats [15, 19] | Wild oats plant response rating [15, 20] | Wild oats plant response rating [15, 21] | Rape plant response rating [16, 17] | Rape plant response rating [16, 18] | Plant response rating, Rape [16, 19] | Rape plant response rating [16, 20] | Plant response rating (0 to 10; 0 is no effect, 10 is complete control), Rape ([16]; Rate 250 g/ha, Postemergence) | Rape plant response rating [16, 21]
3: Giant foxtail plant response rating [2, 20] | Plant response rating, Crabgrass [5, 19] | Plant response rating (0 to 10; 0 is no effect, 10 is complete control), Redroot pigweed ([12]; Rate 250 g/ha, Postemergence)

— patent US6737383B1, “Herbicidal oxadiazolidines” (priority 1999, dated 2004)
